Data on 8 molecules can be found in PubChem BioAssay (NCI).

What all share (test): growth of human tumour cells (NCI), 48 h
Assay [1] relates to HCT-116 colon.
Assay [2] has as its system SK-MEL-5 melanoma.
Assay [3] has as its system SNB-19 CNS.
For assay [4], the system named is NCI-H23 lung.
The subject of assay [5] is KM20L2 colon.
Assay [6] has as its system HT29 colon.
In assay [7] the test system is SK-MEL-28 melanoma.
Assay [8] concerns SW-620 colon.
In assay [9] the test system is OVCAR-8 ovarian.
Assay [10] has as its system UO-31 renal.
In assay [11] the test system is SK-MEL-2 melanoma.
Assay [12] relates to ACHN renal.
Assay [13] deals with HOP-62 NSCLC.
Assay [14] deals with 786-0 renal.
In assay [15] the test system is SN12C renal.
The subject of assay [16] is EKVX NSCLC.
The subject of assay [17] is LOX IMVI melanoma.
For assay [18], the system named is RXF 393 renal.
The test system of assay [19] is HS 578T breast.
Assay [20] has as its system MCF7 breast.

Each structure is given as a SMILES string.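 In this assay, cells in 96-well plates receive the compound at five concentrations for 48 hours. Endpoints are linearly interpolated between the surrounding concentrations. TGI: concentration producing complete growth inhibition.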 Where only a bound is given, the exact number is not on record here.

Take `COc1ccc(C(=O)Cc2c(C(=O)c3ccccc3)c3ccccc3n2C(=O)c2ccccc2)cc1`: the TGI in [1] was greater than 100 µM; in assay [2] it was 64.3 µM; in [3], greater than 100 µM; in [4], greater than 100 µM; in assay [5], greater than 100 µM; in assay [6], greater than 100 µM. Besides, the TGI in [7], in assay [8], in [9], in assay [10], in assay [11] and in [12] was greater than 100 µM throughout. Besides, the TGI in assay [13] and in assay [14] was greater than 100 µM throughout.
Regarding `CC(C)c1ccc(C2C3=C(N=C4SCC(=O)N42)C(=O)c2ccccc23)cc1` (stereo unspecified), the TGI in assay [1], in [2], in assay [3], in assay [4], in assay [5] and in [6] was greater than 100 µM each time. Further, the TGI in [7], in assay [8], in [9], in assay [15], in assay [10] and in [11] was greater than 100 µM throughout. In addition, the TGI in assay [16], in assay [12], in assay [13] and in [14] was greater than 100 µM each time.
`COc1cccc(NC(=O)/C(CC(=O)CC(c2ccccc2)c2c(O)c3ccccc3oc2=O)=N\NC(C)(C)C)c1OC` (stereo unspecified): the TGI in assay [1], in assay [2], in [3], in assay [5], in [7] and in assay [8] was greater than 100 µM each time. The TGI in assay [9], in assay [10], in assay [11], in assay [16], in [12] and in assay [13] was greater than 100 µM each time. Moreover, the TGI in [17] and in assay [14] was greater than 100 µM each time.
As to `CC(=O)OC[C@]1(O)CC[C@@]23CC1C[C@@H]2CCC1C(C)(C)CCC[C@@]13C` (stereo partly specified), the TGI in assay [1] came to 24.2 µM; in assay [2] it was 28.2 µM; in [3] it was 27.6 µM; in assay [4] it was 26.4 µM; in assay [5], 31.7 µM; in assay [6] it was 25.7 µM. Also, the TGI is 28.1 µM in assay [7]; 22.5 µM in [8]; 32 µM in assay [9]; 24.7 µM in assay [15]; 29.9 µM in [10]; 22.9 µM in [18]. The TGI in assay [12] stood at 29.3 µM; in assay [13] it was 32.2 µM; in assay [17], 23.3 µM; in assay [14] it was 31.6 µM.
In the case of `COc1cc(/C=C2\C[C@H]3[C@@H]4CC=C5C=C(N6CCCC6)CC[C@]5(C)[C@H]4CC[C@]3(C)C2=O)cc(OC)c1OC`, the TGI was 3.93 µM in assay [1]; greater than 27.9 µM in assay [2]; 18.4 µM in [3]; 7.96 µM in assay [4]; 8.67 µM in assay [6]; 6.21 µM in [19]. In addition, the TGI in assay [7] was 19.5 µM; in [8], greater than 41.6 µM; in assay [9], 6.1 µM; in assay [15], 12.1 µM; in [10], 8.48 µM; in [11], 13 µM. Besides, the TGI was 4.04 µM in [18]; 16.5 µM in assay [16]; 5.46 µM in assay [12]; 7.17 µM in assay [13]; 2.87 µM in assay [17]; greater than 24.2 µM in assay [14]. The molecule also gave a TGI in assay [20] of 11.3 µM.
As for `CCCCCCCCCc1cc(-c2ccc(C=O)s2)sc1-c1ccc(C=O)s1`, the TGI in assay [1] was 49 µM; in assay [2] it was 34.6 µM; in assay [3], greater than 87.1 µM; in assay [4], 82.5 µM; in [6], greater than 100 µM; in assay [19], 46.5 µM. For the same molecule, the TGI is greater than 100 µM in [7]; greater than 100 µM in [8]; greater than 59 µM in assay [9]; greater than 84 µM in assay [15]; 63.3 µM in [10]; 64.4 µM in assay [11]. For the same molecule, the TGI in assay [18] was 35.4 µM; in assay [16] it was greater than 100 µM; in assay [12], greater than 100 µM; in assay [13] it was 74.8 µM; in [17], 37 µM; in assay [14], greater than 85.2 µM. In [20], this molecule had a TGI greater than 54.3 µM.
As to `O=c1[nH]/c(=C/c2ccc(OCc3ccccc3)cn2)c(=O)[nH]/c1=C/c1ccc([N+](=O)[O-])cc1`, the TGI in [1] was greater than 100 µM; in assay [2], greater than 100 µM; in [3] it was greater than 100 µM; in [4], greater than 100 µM; in assay [6] it was greater than 100 µM; in [19] it was greater than 78.4 µM. Moreover, the TGI in assay [7], in assay [8], in assay [9], in [15], in [10] and in assay [11] was greater than 100 µM in each case. The TGI in assay [18], in assay [16], in [12], in assay [13], in assay [17] and in assay [14] was greater than 100 µM in each case. The molecule also returned a TGI in assay [20] greater than 100 µM.
Regarding `c1ccc2c(c1)nc1n2CCCn2ccnc2-1`, the TGI in assay [1], in assay [2], in assay [3], in assay [4], in assay [6] and in assay [19] was greater than 100 µM throughout. The TGI in assay [7], in assay [8], in assay [9], in [15], in assay [10] and in assay [11] was greater than 100 µM each time. Moreover, the TGI in [18], in assay [16], in assay [12], in assay [13], in [17] and in assay [14] was greater than 100 µM throughout. This molecule also yielded a TGI in assay [20] greater than 100 µM.
